In US8101761B2, “(E)-N-{3-[1-(8-fluoro-11H-10-OXA-1-AZA-dibenzo [A,D] cyclohepten-5ylidene)-propyl]-phenyl}-methanesulfonamide as glucocorticoid receptor modulator for the treatment of rheumatoid arthritis” (Eli Lilly and Company, priority 2008, dated 2012):

Key:
[1] = target: T1, human AR (androgen receptor) (Homo sapiens, UniProt P10275); experiment: Nuclear hormone receptor competition binding assay, AR; conditions: HEK293 lysate overexpressing human AR, [3H]-methyltrienolone; mean of n=7
T1 construct: expressed in transfected cells; host or cells: HEK293 (293-AR lysate)
T1 sequence (P10275 1-920): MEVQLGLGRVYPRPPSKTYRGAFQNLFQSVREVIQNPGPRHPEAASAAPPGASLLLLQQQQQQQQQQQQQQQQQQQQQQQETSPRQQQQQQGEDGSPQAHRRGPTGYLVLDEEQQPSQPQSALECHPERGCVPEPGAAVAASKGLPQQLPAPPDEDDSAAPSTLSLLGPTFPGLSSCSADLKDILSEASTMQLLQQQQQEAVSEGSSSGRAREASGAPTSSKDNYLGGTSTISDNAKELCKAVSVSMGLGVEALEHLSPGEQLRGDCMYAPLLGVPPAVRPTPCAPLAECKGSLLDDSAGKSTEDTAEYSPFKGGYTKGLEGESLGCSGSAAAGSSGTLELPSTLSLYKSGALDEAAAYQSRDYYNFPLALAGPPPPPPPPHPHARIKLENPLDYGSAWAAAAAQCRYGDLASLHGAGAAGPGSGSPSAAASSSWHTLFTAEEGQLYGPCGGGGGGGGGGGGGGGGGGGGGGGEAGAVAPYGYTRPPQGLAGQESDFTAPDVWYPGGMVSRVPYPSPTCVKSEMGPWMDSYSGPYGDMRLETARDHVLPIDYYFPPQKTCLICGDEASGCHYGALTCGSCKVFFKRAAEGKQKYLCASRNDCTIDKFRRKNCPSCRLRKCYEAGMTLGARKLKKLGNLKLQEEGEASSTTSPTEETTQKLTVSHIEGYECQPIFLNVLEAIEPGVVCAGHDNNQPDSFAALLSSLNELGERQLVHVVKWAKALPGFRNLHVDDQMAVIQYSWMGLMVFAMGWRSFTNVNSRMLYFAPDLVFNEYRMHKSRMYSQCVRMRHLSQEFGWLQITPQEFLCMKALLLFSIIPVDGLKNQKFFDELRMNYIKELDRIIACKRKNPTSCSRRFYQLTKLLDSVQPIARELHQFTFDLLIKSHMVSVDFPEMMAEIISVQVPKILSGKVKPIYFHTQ
Protocol: Cell lysates from human embryonic kidney HEK293 cells overexpressing human GR (glucocorticoid receptor), AR (androgen receptor), MR (mineralocorticoid receptor), or PR (progesterone receptor) are used for receptor-ligand competition binding assays to determine Ki values.
Briefly, steroid receptor competition binding assays are run in a buffer containing 20 mM Hepes buffer (pH=7.6), 0.2 mM EDTA, 75 mM NaCl, 1.5 mM MgCl2, 20% glycerol, 20 mM sodium molybdate, 0.2 mM DTT (dithiothreitol), 20 μg/ml aprotinin and 20 μg/ml leupeptin. Typically, steroid receptor binding assays include radio-labeled ligands, such as 0.3 nM [^3H]-dexamethasone for GR binding, 0.36 nM [^3H]-methyltrienolone for AR binding, 0.25 nM [^3H]-aldosterone for MR binding, and 0.29 nM [^3H]-methyltrienolone for PR binding, and either 20 μg 293-GR lysate, 22 μg 293-AR lysate, 20 μg 293-MR lysate or 40 μg 293-PR lysate per well. Assays are typically run in 96-well format. Competing test compounds are added at various concentrations ranging from about 0.01 nM to 10 μM. Non-specific binding is determined in the presence of 500 nM dexamethasone for GR binding, 500 nM aldosterone for MR binding, or 500 nM methyltrienolone for AR and PR binding. […] After an incubation of 2 hours, plates are read in a Wallac Microbeta counter. […]

[2] = system: serum osteocalcin in male Swiss-Webster mice; experiment: Serum osteocalcin assay; assay type: in vivo, mouse; conditions: oral, seven days, 3 mg/Kg/day Compound (I) vs 10 mg/Kg/day prednisolone, serum 24 h after last dose
Text: Bone loss/osteoporosis and the resulting increased risk of fracture is a common and significant adverse effect that results from glucocorticoid therapy. Glucocorticoid induced osteoporosis is believed to result, at least in part, from an inhibition of bone formation. The measurement of serum osteocalcin, a biological marker of bone synthesis, is a recognized tool for assessing the adverse effects of glucocorticoid therapy on bone.
To assess the effects of Compound (I) on bone formation, Compound (I) is formulated in a vehicle comprising 5% carboxymethyl cellulose and 0.25% Tween 80 and administered orally via gavage to sixteen week old male Swiss-Webster mice (Harlan Industries, Indianapolis) for seven days. For comparison, prednisolone is administered orally in the same vehicle. Serum is collected 24 hours after the last dose and osteocalcin levels are determined using a competitive radioimmunoassay modified to a 96 well format. […] The filters are punched and the radioactivity quantitated on a gamma counter. Radioactivity detected on the filters from test samples is inversely proportional to serum osteocalcin concentration. […]

CC/C(=C1\c2ccc(F)cc2OCc2ncccc21)c1cccc(NS(C)(=O)=O)c1 [Compound (I), (E)-N-{3-[1-(8-Fluoro-11H-10-oxa-1-aza-dibenzo[a,d]cyclohepten-5-ylidene)-propyl]-phenyl}-methanesulfonamide]
Ki [1]: ~6.7 nM
reduction in serum osteocalcin levels [2]: less reduction in serum osteocalcin levels than prednisolone
